Experimental data reported in ChEMBL document CHEMBL3879901, “Substituted isoquinolin-1(2H)-ones, and methods of use thereof” (2012).
Active and inactive are the calls of the source. No cut-off for these calls is given here.

Assays:
Rattus norvegicus [1] = assay: Antiarthritic activity in complete freund's adjuvant-induced intrathecally dosed Lewis rat arthritis model assessed as reduction in paw volume administered on day 8 to 20 post arthritis induction measured every second day of compound dosing by water displacement plethysmometry; format: functional, organism-based
PI3K p110 beta/p85 alpha = PI3K p110 beta/p85 alpha (Homo sapiens, UniProt P42338); assay: Inhibition of N-terminal His6-tagged recombinant full-length human p110beta/untagged recombinant full length p85alpha expressed in baculovirus infected Sf21 cells using phosphatidylinositol as substrate in presence of gamma-32P-ATP after 5 mins by thin layer chromatographic method
Sequence of PI3K p110 beta/p85 alpha (P27986 whole entry): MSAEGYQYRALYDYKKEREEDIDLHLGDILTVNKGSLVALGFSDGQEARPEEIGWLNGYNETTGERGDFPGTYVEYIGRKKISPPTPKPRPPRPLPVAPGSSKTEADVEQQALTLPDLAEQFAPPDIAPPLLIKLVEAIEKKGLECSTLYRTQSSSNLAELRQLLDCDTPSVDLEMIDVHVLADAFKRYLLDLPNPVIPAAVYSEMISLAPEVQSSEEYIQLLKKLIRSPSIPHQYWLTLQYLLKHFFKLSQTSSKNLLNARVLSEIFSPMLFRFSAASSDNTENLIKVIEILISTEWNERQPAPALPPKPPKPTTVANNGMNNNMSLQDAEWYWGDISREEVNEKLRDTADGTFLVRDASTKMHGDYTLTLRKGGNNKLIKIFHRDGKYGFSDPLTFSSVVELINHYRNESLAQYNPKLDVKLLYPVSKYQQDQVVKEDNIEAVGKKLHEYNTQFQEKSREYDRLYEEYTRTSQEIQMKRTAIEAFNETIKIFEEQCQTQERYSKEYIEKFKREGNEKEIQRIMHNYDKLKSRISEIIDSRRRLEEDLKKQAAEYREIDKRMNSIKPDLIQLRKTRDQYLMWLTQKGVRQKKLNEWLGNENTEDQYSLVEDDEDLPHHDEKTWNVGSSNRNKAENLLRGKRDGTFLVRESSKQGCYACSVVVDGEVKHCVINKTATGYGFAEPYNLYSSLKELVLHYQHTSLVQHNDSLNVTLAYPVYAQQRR
Sequence of PI3K p110 beta/p85 alpha (P42338 whole entry): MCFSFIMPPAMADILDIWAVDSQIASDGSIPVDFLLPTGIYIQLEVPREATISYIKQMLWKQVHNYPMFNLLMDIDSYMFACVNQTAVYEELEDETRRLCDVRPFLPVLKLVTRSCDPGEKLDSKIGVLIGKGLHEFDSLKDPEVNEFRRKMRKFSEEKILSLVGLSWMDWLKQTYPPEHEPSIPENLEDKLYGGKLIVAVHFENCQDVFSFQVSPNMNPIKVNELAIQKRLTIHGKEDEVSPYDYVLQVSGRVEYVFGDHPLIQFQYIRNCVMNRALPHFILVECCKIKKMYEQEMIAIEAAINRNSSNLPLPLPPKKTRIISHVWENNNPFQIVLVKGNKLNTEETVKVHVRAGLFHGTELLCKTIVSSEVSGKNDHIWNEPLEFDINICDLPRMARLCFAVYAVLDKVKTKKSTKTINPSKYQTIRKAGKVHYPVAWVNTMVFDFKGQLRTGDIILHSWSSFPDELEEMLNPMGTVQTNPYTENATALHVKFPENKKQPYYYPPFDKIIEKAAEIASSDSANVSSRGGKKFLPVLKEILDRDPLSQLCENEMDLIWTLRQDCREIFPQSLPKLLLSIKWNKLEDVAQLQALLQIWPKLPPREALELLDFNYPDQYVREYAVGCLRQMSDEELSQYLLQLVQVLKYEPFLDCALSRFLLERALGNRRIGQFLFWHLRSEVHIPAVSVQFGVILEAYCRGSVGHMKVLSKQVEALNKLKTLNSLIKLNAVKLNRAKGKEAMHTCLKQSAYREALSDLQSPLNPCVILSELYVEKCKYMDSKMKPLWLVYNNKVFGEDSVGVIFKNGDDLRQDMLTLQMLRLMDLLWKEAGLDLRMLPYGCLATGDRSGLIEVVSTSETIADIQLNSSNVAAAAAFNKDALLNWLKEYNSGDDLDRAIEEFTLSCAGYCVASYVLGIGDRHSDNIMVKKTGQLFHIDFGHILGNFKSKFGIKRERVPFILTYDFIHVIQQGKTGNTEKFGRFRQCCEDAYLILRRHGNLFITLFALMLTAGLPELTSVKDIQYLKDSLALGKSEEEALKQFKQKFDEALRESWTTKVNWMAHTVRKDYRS

Mus musculus [2] = assay: Reduction of TNP-Ficoll-induced T cell independent B cell activation in BDA-1 mouse assessed as decrease in IgG3 levels in serum at 10 mg/kg, po bid administered for 7 days by ELISA relative to control; format: functional
Rattus norvegicus [3] = assay: Antiarthritic activity in type 2 collagen-induced Lewis rat arthritis model assessed as reduction in serum anti-type 2 collagen levels at 10 mg/kg, po administered every 12 hrs for 16 days measured on day 17 of post last dose by ELISA relative to control; format: functional; parameters: scale not given: the % may be the effect or the level left
Rattus norvegicus [4] = assay: Antiarthritic activity in type 2 collagen-induced Lewis rat arthritis model assessed as reduction in ankle diameter at 10 to 60 mg/kg, po administered every 12 hrs for 16 days measured on day 9 of compound dosing to day 17 of post last dose relative to vehicle-treated control; format: functional, organism-based
Rattus norvegicus [5] = assay: Antiarthritic activity in type 2 collagen-induced Lewis rat arthritis model assessed as reduction in ankle diameter at 10 to 60 mg/kg, po qd administered for 6 days measured every day of compound dosing and day 7 of post last dose; format: functional, organism-based
Rattus norvegicus [6] = assay: Antiarthritic activity in type 2 collagen-induced po dosed Lewis rat arthritis model assessed as reduction in bone resorption in knee administered every 12 hrs for 16 days measured on day 17 of post last dose by toluidine blue staining-based assay; format: functional, organism-based
Mus musculus [7] = assay: Reduction of TNP-Ficoll-induced T cell independent B cell activation in BDA-1 mouse assessed as decrease in IgG3 levels in serum at 3 mg/kg, po bid administered for 7 days by ELISA relative to control; format: functional
Mus musculus [8] = species: Mus musculus; assay: Inhibition of TNP-Ficoll or TNP-KHL-stimulated IgE response in mouse in presence of mTOR inhibitor rapamycin by ELISA; format: functional
Homo sapiens = species: Homo sapiens; assay: Inhibition of allergen-induced activation of basophilic granulocytes in human whole blood preincubated for 20 mins followed by allergen induction measured after 20 mins using sub micromolar range of compound by basotest assay; format: functional, tissue-based
[9] = biological target: PI3-kinase p110-alpha/p85-alpha (Homo sapiens, UniProt P42336); assay: Inhibition of N-terminal His6-tagged recombinant full-length human p110alpha/untagged recombinant full length human p85alpha expressed in baculovirus infected Sf21 cells using phosphatidylinositol as substrate in presence of gamma-32P-ATP after 5 mins by thin layer chromatographic method
Sequence of PI3-kinase p110-alpha/p85-alpha (P27986 whole entry): as the sequence (P27986 whole entry) above
Sequence of PI3-kinase p110-alpha/p85-alpha (P42336 whole entry): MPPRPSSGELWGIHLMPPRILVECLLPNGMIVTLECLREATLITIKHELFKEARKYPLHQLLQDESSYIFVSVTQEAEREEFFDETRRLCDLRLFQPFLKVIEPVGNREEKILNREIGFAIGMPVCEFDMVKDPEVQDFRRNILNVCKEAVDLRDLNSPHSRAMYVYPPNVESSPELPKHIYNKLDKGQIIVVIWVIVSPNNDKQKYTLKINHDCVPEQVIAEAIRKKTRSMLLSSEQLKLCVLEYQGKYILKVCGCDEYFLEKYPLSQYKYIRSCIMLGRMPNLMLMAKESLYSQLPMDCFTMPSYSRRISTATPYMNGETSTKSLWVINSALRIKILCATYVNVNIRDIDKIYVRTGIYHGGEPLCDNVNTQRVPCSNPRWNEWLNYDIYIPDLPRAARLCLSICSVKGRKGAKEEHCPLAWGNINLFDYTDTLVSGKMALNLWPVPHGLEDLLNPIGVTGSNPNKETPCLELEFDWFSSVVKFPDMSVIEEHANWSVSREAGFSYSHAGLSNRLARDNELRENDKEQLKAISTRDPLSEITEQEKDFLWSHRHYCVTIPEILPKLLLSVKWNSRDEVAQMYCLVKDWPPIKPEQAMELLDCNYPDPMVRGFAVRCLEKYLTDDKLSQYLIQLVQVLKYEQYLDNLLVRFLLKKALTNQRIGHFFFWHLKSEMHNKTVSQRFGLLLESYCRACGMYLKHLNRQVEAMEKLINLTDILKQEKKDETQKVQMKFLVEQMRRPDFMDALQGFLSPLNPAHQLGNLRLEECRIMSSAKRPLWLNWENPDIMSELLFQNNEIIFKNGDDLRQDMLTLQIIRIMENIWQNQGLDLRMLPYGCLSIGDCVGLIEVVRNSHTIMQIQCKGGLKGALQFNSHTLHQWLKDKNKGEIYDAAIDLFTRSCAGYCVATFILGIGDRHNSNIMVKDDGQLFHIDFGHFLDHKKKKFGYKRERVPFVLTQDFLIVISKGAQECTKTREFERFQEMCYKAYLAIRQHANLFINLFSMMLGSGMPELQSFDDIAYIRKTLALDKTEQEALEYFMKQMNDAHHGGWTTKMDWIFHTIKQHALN

Rattus norvegicus [10] = assay: Antiarthritic activity in type 2 collagen-induced Lewis rat arthritis model assessed as reduction in cartilage damage in ankle at 60 mg/kg, po administered every 12 hrs for 16 days measured on day 17 of post last dose by toluidine blue staining-based assay; format: functional, organism-based
Rattus norvegicus [11] = assay: Antiarthritic activity in type 2 collagen-induced Lewis rat arthritis model assessed as reduction in serum anti-type 2 collagen levels at 30 mg/kg, po administered every 12 hrs for 16 days measured on day 17 of post last dose by ELISA relative to control; format: functional; parameters: scale not given: the % may be the effect or the level left
[12] = Antiproliferative activity against Balb/c mouse splenic B cells preincubated for 30 mins followed by LPS or F(ab')2 donkey anti-mouse IgM and recombinant mouse IL4 stimulation measured after 72 hrs by Alamar Blue reduction assay; format: functional, cell-based
Rattus norvegicus [13] = assay: Antiarthritic activity in collagen-induced Lewis rat arthritis model assessed as reduction in ankle joint swelling administered for 6 days post arthritis induction measured every day during compound dosing and day 7 of post last dose in presence of mTOR inhibitor rapamycin; format: functional
Mus musculus [14] = species: Mus musculus; assay: Inhibition of TNP-Ficoll or TNP-KHL-stimulated IgG3 response in mouse in presence of mTOR inhibitor rapamycin by ELISA relative to vehicle-treated control; format: functional
Rattus norvegicus [15] = assay: Antiarthritic activity in type 2 collagen-induced Lewis rat arthritis model assessed as reduction in ankle pannus at 60 mg/kg, po administered every 12 hrs for 16 days measured on day 17 of post last dose by toluidine blue staining-based assay; format: functional, organism-based
Rattus norvegicus [16] = assay: Antiarthritic activity in type 2 collagen-induced Lewis rat arthritis model assessed as reduction in ankle inflammation at 60 mg/kg, po administered every 12 hrs for 16 days measured on day 17 of post last dose by toluidine blue staining-based assay; format: functional, organism-based
Mus musculus [17] = assay: Reduction of TNP-Ficoll-induced T cell independent B cell activation in BDA-1 mouse assessed as decrease in IgG3 levels in serum at 1 mg/kg, po bid administered for 7 days by ELISA relative to control; format: functional

SMILES: CC(=O)Nc1nc2ccc(-c3nn(Cc4cc5cccc(C)c5c(=O)n4-c4ccccc4C)c4ncnc(N)c34)cc2s1
- Activity (Rattus norvegicus [1]): Dose-dependent effect
- IC50 (PI3K p110 beta/p85 alpha): < 10 µM
- fold change (FC) (Mus musculus [2]): 1.4
- Activity (Rattus norvegicus [3]): 75%
- Activity (Rattus norvegicus [4]): Active
- Activity (Rattus norvegicus [5]): Active
- Activity (Rattus norvegicus [6]): Dose-dependent effect
- fold change (FC) (Mus musculus [7]): 0.8
- inhibition (Mus musculus [8]): Active
- inhibition (Homo sapiens): Active
- IC50 [9]: 1 to 10 µM
- Activity (Rattus norvegicus [10]): Active
- Activity (Rattus norvegicus [11]): 87%
- EC50 [12]: < 0.1 µM
- Activity (Rattus norvegicus [13]): Active
- inhibition (Mus musculus [14]): Active
- Activity (Rattus norvegicus [15]): Active
- Activity (Rattus norvegicus [16]): Active
- fold change (FC) (Mus musculus [17]): 0.6
